# According to PubChem BioAssay (NCI):
#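 GI50 marks 50% less growth. Definition used: TGI = concentration required for complete inhibition of growth.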
# How the values were obtained:
# Assay in all cases: NCI anticancer screen, dose series, 384-well format
# BT-549 breast = system: BT-549 breast
# COLO 205 colon = system: COLO 205 colon
# HCT-116 colon = system: HCT-116 colon
# HL-60(TB) leukemia = system: HL-60(TB) leukemia
# LOX IMVI melanoma = system: LOX IMVI melanoma
# MALME-3M melanoma = system: MALME-3M melanoma
# MOLT-4 leukemia = system: MOLT-4 leukemia
# NCI-H322M lung = system: NCI-H322M lung
# RXF 393 renal = system: RXF 393 renal
# SF-539 CNS = system: SF-539 CNS
# SK-MEL-5 melanoma = system: SK-MEL-5 melanoma
# SW-620 colon = system: SW-620 colon
# TK-10 renal = system: TK-10 renal
smiles,measurement,setting,value
Cc1ccc2c(N)c(C(=O)N[C@H]3CCc4cc(N5CC6CCC(C5)N6)ccc4C3)sc2n1,GI50,BT-549 breast,154 nM
same,TGI,BT-549 breast,423 nM
same,GI50,COLO 205 colon,164 nM
same,TGI,COLO 205 colon,532 nM
same,GI50,HCT-116 colon,155 nM
same,TGI,HCT-116 colon,925 nM
same,GI50,HL-60(TB) leukemia,32 nM
same,TGI,HL-60(TB) leukemia,108 nM
same,GI50,LOX IMVI melanoma,88.7 nM
same,TGI,LOX IMVI melanoma,268 nM
same,GI50,MALME-3M melanoma,164 nM
same,TGI,MALME-3M melanoma,443 nM
same,GI50,MOLT-4 leukemia,35.1 nM
same,TGI,MOLT-4 leukemia,105 nM
same,GI50,NCI-H322M lung,208 nM
same,TGI,NCI-H322M lung,660 nM
same,GI50,RXF 393 renal,116 nM
same,TGI,RXF 393 renal,406 nM
same,GI50,SF-539 CNS,207 nM
same,TGI,SF-539 CNS,663 nM
same,GI50,SK-MEL-5 melanoma,111 nM
same,TGI,SK-MEL-5 melanoma,436 nM
same,GI50,SW-620 colon,207 nM
same,TGI,SW-620 colon,1070 nM
same,GI50,TK-10 renal,253 nM
same,TGI,TK-10 renal,757 nM
